Experimental data taken from ChEMBL document CHEMBL3217491, “Design, synthesis and biological evaluation of imidazopyridine/pyrimidine-chalcone derivatives as potential anticancer agents” (2010).
The source made the active and inactive calls. No cut-off for these calls is given here.

Experiments:
[1] = system: HOP-62; assay: Growth inhibition of human HOP62 cells after 48 hrs by SRB assay; format: functional; conditions: HOP-62, 48 h
[2] = system: CCRF-CEM; assay: Growth inhibition of human CCRF-CEM cells after 48 hrs by SRB assay; format: functional
[3] = system: NCI-H322M; assay: Growth inhibition of human NCI-H322M cells after 48 hrs by SRB assay; format: functional
[4] = Growth inhibition of human SF539 cells after 48 hrs by SRB assay; format: functional; conditions: SF-539, 48 h
[5] = system: TK-10; assay: Growth inhibition of human TK10 cells after 48 hrs by SRB assay; format: functional; conditions: TK-10, 48 h
[6] = Growth inhibition of human BT549 cells after 48 hrs by SRB assay; format: functional; conditions: BT-549, 48 h
[7] = system: MCF7; assay: Cell cycle arrest in human MCF7 cells assessed as accumulation at G0/G1 phase at 4 uM after 24 hrs by propidium iodide staining-based flow cytometry (reference value: 64.04%); format: functional
[8] = system: Malme-3M; assay: Growth inhibition of human MALME-3M cells after 48 hrs by SRB assay; format: functional
[9] = system: HL-60(TB); assay: Growth inhibition of human HL-60(TB) cells after 48 hrs by SRB assay; format: functional; conditions: HL-60, 48 h
[10] = system: HCT-116; assay: Growth inhibition of human HCT116 cells after 48 hrs by SRB assay; format: functional; conditions: HCT-116, 48 h
[11] = system: NCI-H226; assay: Growth inhibition of human NCI-H226 cells after 48 hrs by SRB assay; format: functional; conditions: NCI-H226, 48 h
[12] = system: SK-MEL-28; assay: Growth inhibition of human SK-MEL-28 cells after 48 hrs by SRB assay; format: functional; conditions: SK-MEL-28, 48 h
[13] = system: A549; assay: Growth inhibition of human A549 cells after 48 hrs by SRB assay; format: functional; conditions: A549, 48 h
[14] = system: IGROV-1; assay: Growth inhibition of human IGROV1 cells after 48 hrs by SRB assay; format: functional; conditions: IGROV-1, 48 h
[15] = Growth inhibition of human SF295 cells after 48 hrs by SRB assay; format: functional; conditions: SF-295, 48 h
[16] = system: MDA-MB-231; assay: Growth inhibition of human MDA-MB-231 cells after 48 hrs by SRB assay; format: functional; conditions: MDA-MB-231, 48 h
[17] = system: MCF7; assay: Cell cycle arrest in human MCF7 cells assessed as accumulation at S phase at 4 uM after 24 hrs by propidium iodide staining-based flow cytometry (reference value: 20.17%); format: functional
[18] = system: HT-29; assay: Growth inhibition of human HT-29 cells after 48 hrs by SRB assay; format: functional; conditions: HT-29, 48 h
[19] = Growth inhibition of human HOP92 cells after 48 hrs by SRB assay; format: functional; conditions: HOP-92, 48 h
[20] = system: K562; assay: Growth inhibition of human K562 cells after 48 hrs by SRB assay; format: functional; conditions: K562, 48 h
[21] = system: COLO 205; assay: Growth inhibition of human COLO205 cells after 48 hrs by SRB assay; format: functional; conditions: COLO 205, 48 h
[22] = Growth inhibition of human RXF393 cells after 48 hrs by SRB assay; format: functional; conditions: RXF 393, 48 h
[23] = system: MCF7; assay: Growth inhibition of human MCF7 cells after 48 hrs by SRB assay; format: functional; conditions: MCF7, 48 h
[24] = system: NCI-H23; assay: Growth inhibition of human NCI-H23 cells after 48 hrs by SRB assay; format: functional; conditions: NCI-H23, 48 h
[25] = system: MCF7; assay: Cell cycle arrest in human MCF7 cells assessed as accumulation at G2/M phase at 4 uM after 24 hrs by propidium iodide staining-based flow cytometry (reference value: 15.79%); format: functional
[26] = Growth inhibition of human UO31 cells after 48 hrs by SRB assay; format: functional; conditions: UO-31, 48 h
[27] = Growth inhibition of human HCC2998 cells after 48 hrs by SRB assay; format: functional; conditions: HCC 2998, 48 h
[28] = system: SR; assay: Growth inhibition of human SR cells after 48 hrs by SRB assay; format: functional
[29] = Growth inhibition of human UACC62 cells after 48 hrs by SRB assay; format: functional; conditions: UACC-62, 48 h
[30] = Growth inhibition of human OVCAR4 cells after 48 hrs by SRB assay; format: functional; conditions: OVCAR-4, 48 h
[31] = system: U-251; assay: Growth inhibition of human U251 cells after 48 hrs by SRB assay; format: functional; conditions: U-251, 48 h
[32] = Growth inhibition of human HCT15 cells after 48 hrs by SRB assay; format: functional; conditions: HCT-15, 48 h
[33] = system: ACHN; assay: Growth inhibition of human ACHN cells after 48 hrs by SRB assay; format: functional
[34] = system: SK-OV-3; assay: Growth inhibition of human SKOV3 cells after 48 hrs by SRB assay; format: functional; conditions: SK-OV-3, 48 h
[35] = Growth inhibition of human NCI-ADR-RES cells after 48 hrs by SRB assay; format: functional
[36] = system: SK-MEL-5; assay: Growth inhibition of human SK-MEL-5 cells after 48 hrs by SRB assay; format: functional; conditions: SK-MEL-5, 48 h
[37] = system: NCI-H522; assay: Growth inhibition of human NCI-H522 cells after 48 hrs by SRB assay; format: functional; conditions: NCI-H522, 48 h
[38] = system: KM12; assay: Growth inhibition of human KM12 cells after 48 hrs by SRB assay; format: functional; conditions: KM12, 48 h
[39] = system: MDA-MB-468; assay: Growth inhibition of human MDA-MB-468 cells after 48 hrs by SRB assay; format: functional; conditions: MDA-MB-468, 48 h
[40] = Growth inhibition of human UACC257 cells after 48 hrs by SRB assay; format: functional; conditions: UACC-257, 48 h
[41] = system: PC-3; assay: Growth inhibition of human PC3 cells after 48 hrs by SRB assay; format: functional; conditions: PC-3, 48 h
[42] = Growth inhibition of human OVCAR5 cells after 48 hrs by SRB assay; format: functional; conditions: OVCAR-5, 48 h
[43] = system: MDA-MB-435; assay: Growth inhibition of human MDA-MB-435 cells after 48 hrs by SRB assay; format: functional; conditions: MDA-MB-435, 48 h
[44] = system: 786-0; assay: Growth inhibition of human 786-0 cells after 48 hrs by SRB assay; format: functional; conditions: 786-0, 48 h
[45] = system: CAKI-1; assay: Growth inhibition of human Caki1 cells after 48 hrs by SRB assay; format: functional; conditions: CAKI-1, 48 h
[46] = system: SF-268; assay: Growth inhibition of human SF268 cells after 48 hrs by SRB assay; format: functional; conditions: SF-268, 48 h
[47] = system: RPMI-8226; assay: Growth inhibition of human RPMI8226 cells after 48 hrs by SRB assay; format: functional; conditions: RPMI-8226, 48 h
[48] = system: SNB-75; assay: Growth inhibition of human SNB75 cells after 48 hrs by SRB assay; format: functional; conditions: SNB-75, 48 h
[49] = Growth inhibition of human Hs578T cells after 48 hrs by SRB assay; format: functional; conditions: Hs-578T
[50] = Growth inhibition of human OVCAR8 cells after 48 hrs by SRB assay; format: functional; conditions: OVCAR-8, 48 h
[51] = system: NCI-H460; assay: Growth inhibition of human NCI-H460 cells after 48 hrs by SRB assay; format: functional; conditions: NCI-H460, 48 h
[52] = Growth inhibition of human OVCAR3 cells after 48 hrs by SRB assay; format: functional; conditions: OVCAR-3, 48 h
[53] = system: T47D; assay: Growth inhibition of human T47D cells after 48 hrs by SRB assay; format: functional
[54] = Growth inhibition of human MOLT4 cells after 48 hrs by SRB assay; format: functional; conditions: MOLT-4, 48 h
[55] = system: DU-145; assay: Growth inhibition of human DU145 cells after 48 hrs by SRB assay; format: functional; conditions: DU-145, 48 h
[56] = system: M14; assay: Growth inhibition of human M14 cells after 48 hrs by SRB assay; format: functional; conditions: M14, 48 h
[57] = system: SK-MEL-2; assay: Growth inhibition of human SK-MEL-2 cells after 48 hrs by SRB assay; format: functional; conditions: SK-MEL-2, 48 h
[58] = system: A498; assay: Growth inhibition of human A498 cells after 48 hrs by SRB assay; format: functional; conditions: A498, 48 h
[59] = Growth inhibition of human EKVX cells after 48 hrs by SRB assay; format: functional
[60] = Growth inhibition of human LOXIMVI cells after 48 hrs by SRB assay; format: functional; conditions: LOX IMVI
[61] = system: SN12C; assay: Growth inhibition of human SN12C cells after 48 hrs by SRB assay; format: functional
[62] = system: SNB-19; assay: Growth inhibition of human SNB19 cells after 48 hrs by SRB assay; format: functional; conditions: SNB-19, 48 h
[63] = system: SW-620; assay: Growth inhibition of human SW620 cells after 48 hrs by SRB assay; format: functional; conditions: SW-620, 48 h
[64] = system: MCF7; assay: Growth inhibition of human MCF7 cells assessed as cell viability at 4 uM after 24 hrs by MTT assay; format: functional, cell-based

Structure (SMILES): COc1ccc(-c2nc3ccccn3c2/C=C/C(=O)c2cc(OC)c(OC)c(OC)c2)cc1
- GI50 [1]: 3.62 µM
- GI50 [2]: 18.8 µM
- GI50 [3]: 4.63 µM
- GI50 [4]: 2.39 µM
- GI50 [5]: 4.16 µM
- GI50 [6]: 3.27 µM
- Activity [7]: 85.55%
- GI50 [8]: 1.56 µM
- GI50 [9]: 34 µM
- GI50 [10]: 2.26 µM
- GI50 [11]: 24.1 µM
- GI50 [12]: 7.1 µM
- GI50 [13]: 7.96 µM
- GI50 [14]: 8.86 µM
- GI50 [15]: 15.2 µM
- GI50 [16]: 5.22 µM
- Activity [17]: 11.65%
- GI50 [18]: 4.8 µM
- GI50 [19]: 2.36 µM
- GI50 [20]: 13.1 µM
- GI50 [21]: 3.5 µM
- GI50 [22]: 2.94 µM
- GI50 [23]: 2.38 µM
- GI50 [24]: 3.41 µM
- Activity [25]: 2.8%
- GI50 [26]: 1.31 µM
- GI50 [27]: 8.27 µM
- GI50 [28]: 3.71 µM
- GI50 [29]: 5.58 µM
- GI50 [30]: 5.72 µM
- GI50 [31]: 3 µM
- GI50 [32]: 4.85 µM
- GI50 [33]: 3.26 µM
- GI50 [34]: 14.8 µM
- GI50 [35]: 3.36 µM
- GI50 [36]: 2.72 µM
- GI50 [37]: 3.12 µM
- GI50 [38]: 4.99 µM
- GI50 [39]: 11.9 µM
- GI50 [40]: 5.85 µM
- GI50 [41]: 19.8 µM
- GI50 [42]: 9.33 µM
- GI50 [43]: 5.76 µM
- GI50 [44]: 3.9 µM
- GI50 [45]: 8.33 µM
- GI50 [46]: 4 µM
- GI50 [47]: 7.5 µM
- GI50 [48]: 5.49 µM
- GI50 [49]: 2.89 µM
- GI50 [50]: 3.92 µM
- GI50 [51]: 4.09 µM
- GI50 [52]: 2.88 µM
- GI50 [53]: 2.59 µM
- GI50 [54]: 32.9 µM
- GI50 [55]: 7.21 µM
- GI50 [56]: 9.8 µM
- GI50 [57]: 4.95 µM
- GI50 [58]: 10.4 µM
- GI50 [59]: 7.42 µM
- GI50 [60]: 6.05 µM
- GI50 [61]: 11.4 µM
- GI50 [62]: 25.2 µM
- GI50 [63]: 4.16 µM
- inhibition [64]: Active
